Measured values reported in patent publication US7414107B2, “Pharmacologically active peptide conjugates having a reduced tendency towards enzymatic hydrolysis” (priority 1998, dated 2008).
Marks after values point to notes of the source that are not given here. Where a SMILES comes first, the peptide text is derived from it. Bridges are numbered along the chain shown (N, C = ends). Where no end group is shown, it is not given here. [ ]: non-standard residue; d: D form. Orn = NCCC[C@H](N)C(=O)O

Legend:
[1] = tested on: vas deferens; settings: read-out: EC50 value; half maximal inhibition of electrically-induced contraction, mouse vas deferens
Description: (§1) In short: vasa deferentia were isolated from male mice weighing 20-30 g (Mellegaard breeding, DK) and suspended through two electrodes in 10 ml baths at resting tension of 1 g. […] The tissues were stimulated electrically (70 V, 1 ms duration; 0.1 Hz) and contractions were recorded isometrically on a chart recorder. After equilibration of the tissue for at least 20 min, drugs were added in the bath and the maximum effects were measured.
Prior to addition of the plasma sample, a standard dose-response curve was generated in each preparation in order to express the inhibitory activity as concentration of each test substance. Thus, the calculated concentration is a reflection of inhibitory activity in the vas deferens bioassay preparation.
Where initial=initial […] contraction force prior to addition of test substance; conc=concentration of test substance; EC50=concentration of test substance that […] produced half maximal inhibition of electrically-induced contraction; background=contraction force during maximal relaxation.

[2] = target: T1, carboxypeptidase A (Bos taurus, UniProt P00730); assay: Hydrolysis kinetics in carboxypeptidase A solution; assay type: in vitro ADME, bovine; settings: 50 mM phosphate buffer pH 7.4, 37° C., carboxypeptidase A 1 U/ml
T1 construct: purchased Sigma, UK type I (catalogue number not given); host or cells: bovine pancreas
T1 sequence (P00730 111-419): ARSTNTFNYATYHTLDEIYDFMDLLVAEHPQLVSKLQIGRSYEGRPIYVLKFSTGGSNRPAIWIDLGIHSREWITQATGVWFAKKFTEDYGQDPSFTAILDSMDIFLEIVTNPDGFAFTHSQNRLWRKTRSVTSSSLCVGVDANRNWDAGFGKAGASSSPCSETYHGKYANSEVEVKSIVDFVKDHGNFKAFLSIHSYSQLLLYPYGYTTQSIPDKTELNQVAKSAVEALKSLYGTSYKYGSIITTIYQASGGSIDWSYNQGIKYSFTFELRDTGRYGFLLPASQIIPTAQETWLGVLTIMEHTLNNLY
Description: (§2) Carboxypeptidase A (EC 3.4.17.1) type I from bovine pancreas, leucine aminopeptidase (EC 3.4.11.1) type III-CP from porcine kidney, α-chymotrypsin (EC […]) from bovine pancreas, and pepsin A (EC 3.4.23.1) from porcine stomach mucosa […] were obtained from Sigma, UK.
(§3) Gradient HPLC analysis of samples from in vitro kinetic measurements performed as described below was performed using a Hewlett Packard HP 1100 HPLC system consisting of a HP 1100 Binary Pump, a HPI 100 Autosampler, a HPI 100 Column Thermostat and a HP 1100 Variable Wavelength Detector. A Merck LiChroCART column (125×4 mm I.D.) and a LiChroCART precolumn (4×4 mm I.D.) packed with Lichrospher RP-18 (5 .μum particles) was used. The column was kept at 25° C. or 75° C. and the column effluent was measured by UV detection at 215 run. Separation of the peptide conjugates or the native peptides from degradation products and constituents of the reaction solutions was accomplished using gradient elution of the column with mixtures of mobile phase A (0.1 vol % TFA in water) and mobile phase B (0.085 vol % TFA in acetonitrile) at a flow rate of 1 ml/min.
(§4) The degradation of the peptide conjugate and the corresponding native peptide were studied at 37° C. in a 50 mM phosphate buffer solution at pH 7.4 containing leucine arninopeptidase (25 U/ml) or carboxypeptidase A (1 or 25 U/ml). Experiments were initiated by addition of an aliquot (100 μl) of a stock solution (1 mg/ml) of the peptide conjugate or the native peptide to 900 μl preheated enzyme solution giving a final concentration of ˜0.1 mg/ml (10^−5-10^−4M) of the peptide conjugate or the native peptide. The peptide/enzyme solution was kept at 37° C. using a SHT200D block heater from Stuart Scientific. At appropriate time intervals, samples of 100 μl were withdrawn from the peptide/enzyme solution, mixed thoroughly with 20 μl 25% TFA in acetonitrile in order to stop the enzymatic degradation process and analysed by HPLC as described above. Half-lives (t1/2) for the peptide conjugate and the corresponding native peptide in the enzyme solutions were calculated from plots of the natural logarithm to the concentration of the residual peptide (HPLC peak heights) against time using the formula t/2=1/kobs×ln(2), where kobs is the apparent first-order rate constant for the observed degradation.

[3] = target: T2, leucine aminopeptidase (Sus scrofa, UniProt P28839); assay: Hydrolysis kinetics in leucine aminopeptidase solution; assay type: in vitro ADME, porcine; settings: 50 mM phosphate buffer pH 7.4, 37° C., leucine aminopeptidase 25 U/ml; for half-life: pig
T2 construct: purchased Sigma, UK type III-CP (catalogue number not given); host or cells: porcine kidney
T2 sequence (P28839 1-519): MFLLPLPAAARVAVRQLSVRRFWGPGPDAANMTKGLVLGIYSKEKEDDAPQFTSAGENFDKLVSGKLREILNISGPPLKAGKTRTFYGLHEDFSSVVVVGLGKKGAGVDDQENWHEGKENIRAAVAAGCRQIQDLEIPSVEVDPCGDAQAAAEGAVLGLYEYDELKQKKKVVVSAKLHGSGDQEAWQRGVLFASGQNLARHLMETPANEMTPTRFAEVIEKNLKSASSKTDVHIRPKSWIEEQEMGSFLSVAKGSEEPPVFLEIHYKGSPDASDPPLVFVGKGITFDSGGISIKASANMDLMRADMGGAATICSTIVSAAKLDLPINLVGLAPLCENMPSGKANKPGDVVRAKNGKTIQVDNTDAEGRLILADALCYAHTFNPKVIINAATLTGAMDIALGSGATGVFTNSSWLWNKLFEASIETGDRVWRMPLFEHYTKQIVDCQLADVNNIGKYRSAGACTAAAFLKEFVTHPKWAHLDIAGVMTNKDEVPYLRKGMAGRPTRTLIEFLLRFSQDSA
Description: as §2, §3, §4

[4] = Hematological responses after p.o. EMP-1 / EMP-1-K6 in mice; assay type: in vivo; settings: male mice, 956 nmol p.o., 4 days after administration
Description: To examine the biological efficacy of peroral (p.o.) treatment with EMP-1 (SEQ ID NO: 117) and EMP-1-K6 (SEQ ID NO: 93), the hematological responses of an equimolar p.o. dose (956 nmol) of EMP-1 (2 mg) and EMP-1-K6 (SEQ ID NO: 93) (2.56 mg) were examined in male mice (n=8/group). To examine the time course of the hematological responses, a 10 μl venous blood sample was collected from the retroorbital plexus on days 0, 2, and 4. Body weight (BW) and the plasma concentration of hemoglobin (P-Hgb), the hematocrit value (Hct), the red blood cell count (RBC), and the mean cell hemoglobin concentration (MCHC) were determined before (Day 0), and 2 and 4 days after administration of EMP-1 (SEQ ID NO: 117) or EMP-1- K6 (SEQ ID NO: 93).

[5] = Bioavailability in mice: functional activity in serum after p.o. or i.v. dosing (vas deferens bioassay); settings: 30 min
Description: Blood samples were centrifuged immediately (3000 g, 4° C.) and serum was isolated and used for activity determination.
as §1

[6] = tested on: osteoblast; assay: Osteoblast retraction assay; assay type: cell-based, mice; settings: 10 nM, 1 h, mouse calvaria osteoblasts
Description: Retraction assays were performed with osteoblast prepared from calvaria of 1-day old mice according to published protocols (Miller et al., 1976, Science 192:1340-1343). In brief, osteoblasts were seeded in serum-free minimal essential medium-α (αMEM) at a density of 3000 cells per cm^2 into 96-well tissue culture plates coated with 50 μg/ml of type I collagen in phosphate-buffered saline containing 0.1% bovine serum albumin (PBS). One day after plating, PTH compounds were added to a final concentration of 10 nM and incubation was carried out for 1 h. Cells were then fixed and stained with toluidine blue, and the number of retracted cells was counted by visual inspection.

Molecule: YGGFLKEKEKE [Leu-Enkephalin-(Lys-Glu)3-OH]
- EC50 [1]: 0.35 µM

Molecule: CC(C)C[C@H](NC(=O)[C@H](Cc1ccccc1)NC(=O)CNC(=O)CNC(=O)[C@@H](N)Cc1ccc(O)cc1)C(=O)N[C@@H](CCCN)C(=O)N[C@@H](CCCN)C(=O)N[C@@H](CCCN)C(=O)N[C@@H](CCCN)C(=O)N[C@@H](CCCN)C(=O)N[C@@H](CCCN)C(=O)O [Leu-Enkephalin-(Orn)6-OH, H-Tyr-Gly-Gly-Phe-Leu-(Orn)6-OH] (H-YGGFL[Orn][Orn][Orn][Orn][Orn][Orn]-OH)
- half-life [2]: > 100 h
- EC50 [1]: > 20 µM
- pseudo first-order rate constant for the degradation [3]: 0.0064 min⁻¹
- half-life [3]: 1.8 h

Molecule: CC(C)C[C@@H]1NC(=O)[C@@H]2CCCN2C(=O)CNC(=O)[C@H](Cc2ccccc2)NC(=O)[C@H](Cc2c[nH]cn2)NC(=O)[C@@H](NC(=O)[C@H](CO)NC(=O)[C@H](Cc2ccc(O)cc2)NC(=O)[C@@H](NC(=O)CNC(=O)CN)[C@@H](C)O)CSSC[C@@H](C(=O)N[C@@H](CCCCN)C(=O)N2CCC[C@H]2C(=O)N[C@@H](CCC(N)=O)C(=O)NCC(=O)NCC(=O)N[C@@H](CCCCN)C(=O)N[C@@H](CCCCN)C(=O)N[C@@H](CCCCN)C(=O)N[C@@H](CCCCN)C(=O)N[C@@H](CCCCN)C(=O)N[C@@H](CCCCN)C(=O)O)NC(=O)[C@H](C(C)C)NC(=O)[C@H](Cc2c[nH]c3ccccc23)NC(=O)[C@H]([C@@H](C)O)NC1=O [EMP-1-(Lys)6-OH, H-Gly-Gly-Thr-Tyr-Ser-Cys-His-Phe-Gly-Pro-Leu-Thr-Trp -Val-Cys-Lys-Pro-Gln-Gly-Gly-LM-OH] (H-GGTYSCHFGPLTWVCKPQGGKKKKKK-OH; disulfide 6-15)
- Change in BW [4]: 3.4 ± 0.3 g
- Change in Hematocrit [4]: 4.5 ± 0.9 %
- Change in MCHC [4]: 0.2 ± 1.5 mM
- Change in P-hgb [4]: +2.4 ± 0.3 mM
- Change in RBC [4]: 1.0 ± 0.1* 10^12 cells/1
- Relative change in BW [4]: (15 ± 2%)
- Relative change in Hematocrit [4]: (12.3 ± 2.3%*)
- Relative change in MCHC [4]: (0 ± 2%)
- Relative change in P-hgb [4]: (+15 ± 2%*)
- Relative change in RBC [4]: (17 ± 2%*)
- half-life [2]: > 20 h
- half-life [3]: > 100 h

Molecule: CC(C)C[C@H](NC(=O)[C@H](Cc1ccccc1)NC(=O)CNC(=O)CNC(=O)[C@@H](N)Cc1ccc(O)cc1)C(=O)O [Leu-Enkephalin-OH, H-Tyr-Gly-Gly-Phe-Leu-OH, reference compound]
- pseudo first-order rate constant for the degradation [2]: 0.98 min⁻¹
- half-life ([2]; cattle, carboxypeptidase A solution (1 U/ml) in phosphate buffer): 0.0117 h
- EC50 [1]: 0.065 µM
- Functional activity in serum ([5]; 50 mg/kg i.v.): no activity was detected
- Functional activity in serum ([5]; 50 mg/kg p.o.): no activity was detected
- pseudo first-order rate constant for the degradation [3]: 0.68 min⁻¹
- half-life [3]: 0.0167 h

Molecule: YGGFLKKKKKKKKKK [Leu-Enkephalin-(Lys)10-OH, H-Tyr-Gly-Gly-Phe-Leu-Lys10-OH]
- half-life [2]: 38.5 h
- pseudo first-order rate constant for the degradation [2]: 0.0003 min⁻¹
- EC50 [1]: 2.5 µM
- half-life [3]: > 100 h

Molecule: H-YGGFLKKEEEK-OH [Leu-Enkephalin-(Lys2-Glu3-Lys)-OH, H-Tyr-Gly-Gly-Phe-Leu-Lys-Lys-Glu-Glu-Glu-Lys-OH]
- EC50 [1]: 0.68 µM

Molecule: CC(C)C[C@@H]1NC(=O)[C@@H]2CCCN2C(=O)CNC(=O)[C@H](Cc2ccccc2)NC(=O)[C@H](Cc2c[nH]cn2)NC(=O)[C@@H](NC(=O)[C@H](CO)NC(=O)[C@H](Cc2ccc(O)cc2)NC(=O)[C@@H](NC(=O)CNC(=O)CN)[C@@H](C)O)CSSC[C@@H](C(=O)N[C@@H](CCCCN)C(=O)N2CCC[C@H]2C(=O)N[C@@H](CCC(N)=O)C(=O)NCC(=O)NCC(=O)O)NC(=O)[C@H](C(C)C)NC(=O)[C@H](Cc2c[nH]c3ccccc23)NC(=O)[C@H]([C@@H](C)O)NC1=O [EMP-1-OH, H-GIy-Gly-Thr-Tyr-Ser-Cys-His-Phe-Gly-Pro-Leu-Thr-Trp -Val-Cys-Lys-Pro-Gln-Gly-GIy-OH, reference compound] (H-GGTYSCHFGPLTWVCKPQGG-OH; disulfide 6-15)
- Change in BW [4]: 3.4 ± 0.2 g
- Change in Hematocrit [4]: 0.3 ± 0.8%
- Change in MCHC [4]: 2.9 ± 1.5 mM
- Change in P-hgb [4]: +1.5 ± 0.5 mM
- Change in RBC [4]: 0.6 ± 0.2 10^12 cells/1
- Relative change in BW [4]: (16 ± 1%)
- Relative change in Hematocrit [4]: (0.8 ± 1.8%)
- Relative change in MCHC [4]: (4 ± 2%)
- Relative change in P-hgb [4]: (+8 ± 1%)
- Relative change in RBC [4]: (9 ± 3%)
- half-life [2]: > 50 h
- pseudo first-order rate constant for the degradation [3]: 0.0015 min⁻¹
- half-life [3]: 7.7 h

B1: Parathyroid Hormone: native, human parathyroid hormone (protein, UniProt P01270 32-115, looked up)
Parathyroid hormone: SVSEIQLMHNLGKHLNSMERVEWLRKKLQDVHNFVALGAPLAPRDAGSQRPRKKEDNVLVESHEKSLGEADKADVNVLTKAKSQ
modifications: Parathyroid hormone
- Retraction assay % Retracted cells [6]: 63.7%
- Retraction assay % Retracted cells ([6]; listed as PTH): ~64%
